Drawing on PubChem BioAssay AID1745844 (Carcinogenic Potency Database (CPDB), 2022), this text covers TD50 and carcinogen call for eight compounds.

Each structure is given as a SMILES string. Values joined by “and” are separate entries in the source; they are usually repeats but may differ in a detail not shown here. Equal entries are not always repeated. Active and inactive are the calls of the source. No rule for the calls is given here.

For the data set, the system named is rodent lifetime carcinogenesis bioassay, tumor incidence TD50. Description: carcinogenic potency in animals, long-term in vivo studies, CPDB compilation (AID 1745844).

With `CC1=C(/C=C/C(C)=C/C=C/C(C)=C/C=C/C=C(C)/C=C/C=C(C)/C=C/C2=C(C)CCCC2(C)C)C(C)(C)CCC1`, the TD50 (mouse, strain Charles River CD1, females, in feed, site: liver, lesion: hepatocellular adenoma, dosed 105 weeks, study length 105 weeks) was 15900 mg/kg/day (inactive); the TD50 (mouse, strain Charles River CD1, females, in feed, site: lung, lesion: adenoma, dosed 105 weeks, study length 105 weeks) is 93600 mg/kg/day (inactive); the TD50 (mouse, strain Charles River CD1, males, in feed, site: liver, lesion: hepatocellular carcinoma, dosed 105 weeks, study length 105 weeks) is 49700 mg/kg/day (inactive); the TD50 (mouse, strain Charles River CD1, males, in feed, site: lung, lesion: adenocarcinoma, dosed 105 weeks, study length 105 weeks) was 26400 mg/kg/day (inactive); the TD50 (mouse, strain Charles River CD1, males, in feed, site: lung, lesion: adenoma, dosed 105 weeks, study length 105 weeks) is 71400 mg/kg/day (inactive). Further, the carcinogen call was “negative (inactive)” (mouse, strain Charles River CD1, females, in feed, site: liver, lesion: hepatocellular carcinoma, dosed 105 weeks, study length 105 weeks); “negative (inactive)” (mouse, strain Charles River CD1, females, in feed, site: lung, lesion: adenocarcinoma, dosed 105 weeks, study length 105 weeks); “negative (inactive)” (mouse, strain Charles River CD1, males, in feed, site: liver, lesion: hepatocellular adenoma, dosed 105 weeks, study length 105 weeks).

For the compound `CCN(CC)C(C)=O`, the TD50 runs as follows: (rat, strain Wistar, males, by gavage, site: any site (literature study), lesion: several types, types named in the paper, dosed 73 weeks, study length 73 weeks) 11.8 mg/kg/day; (rat, strain Wistar, males, by gavage, site: kidney, lesion: papillary transitional-cell carcinoma, dosed 73 weeks, study length 73 weeks) 8.85 mg/kg/day.

As for `CCC(Br)(CC)C(=O)NC(N)=O`, the TD50 is 5320 mg/kg/day (mouse, strain B6C3F1, females, in feed, site: any site (literature study), lesion: several types, types named in the paper, dosed 78 weeks, study length 104 weeks); 1950 mg/kg/day (mouse, strain B6C3F1, females, in feed, site: liver, lesion: hepatocellular adenoma + hepatocellular carcinoma + neoplastic nodule, dosed 78 weeks, study length 104 weeks); 553 mg/kg/day (inactive) and 553 mg/kg/day (mouse, strain B6C3F1, females, in feed, site: lung, lesion: alveolar/bronchiolar adenoma + alveolar/bronchiolar carcinoma, dosed 78 weeks, study length 104 weeks); 1580 mg/kg/day (mouse, strain B6C3F1, males, in feed, site: liver, lesion: hepatocellular adenoma + hepatocellular carcinoma + neoplastic nodule, dosed 78 weeks, study length 104 weeks); 1030 mg/kg/day (inactive) (rat, strain Fischer 344, males, in feed, site: any site (literature study), lesion: several types, types named in the paper, dosed 103 weeks, study length 104 weeks). Moreover, the carcinogen call is “negative (inactive)” (mouse, strain B6C3F1, males, in feed, site: any site (literature study), lesion: several types, types named in the paper, dosed 78 weeks, study length 104 weeks) and “negative (inactive)” (rat, strain Fischer 344, females, in feed, site: any site (literature study), lesion: several types, types named in the paper, dosed 103 weeks, study length 104 weeks).

For `O=C(Nc1ccc2c(c1)Cc1ccccc1-2)C(F)(F)F`, the TD50 reads like this: (rat, strain Buffalo, females, in feed, site: ear duct, lesion: squamous-cell carcinoma, dosed 53 weeks, study length 54 weeks) 4.94 mg/kg/day; (rat, strain Buffalo, females, in feed, site: liver, lesion: hepatoma, dosed 53 weeks, study length 54 weeks) 1.9 mg/kg/day; (rat, strain Buffalo, females, in feed, site: mammary gland, lesion: adenocarcinoma, dosed 53 weeks, study length 54 weeks) 1.62 mg/kg/day.

For `[O]=[Mo](=[O])=[O]`, the TD50 by setting is: (mouse, strain B6C3F1, females, inhaled, site: liver, lesion: hepatocellular adenoma + hepatoblastoma + hepatocellular carcinoma, dosed 105 weeks, study length 105 weeks) 4450 mg/kg/day; (mouse, strain B6C3F1, females, inhaled, site: lung, lesion: alveolar/bronchiolar adenoma + alveolar/bronchiolar carcinoma, dosed 105 weeks, study length 105 weeks) 68.3 mg/kg/day; (mouse, strain B6C3F1, females, inhaled, site: lung, lesion: alveolar/bronchiolar adenoma, dosed 105 weeks, study length 105 weeks) 97.8 mg/kg/day; (mouse, strain B6C3F1, females, inhaled, site: subcutaneous tissue, lesion: sarcoma, dosed 105 weeks, study length 105 weeks) 162 mg/kg/day; (mouse, strain B6C3F1, males, inhaled, site: liver, lesion: hepatocellular adenoma + hepatoblastoma + hepatocellular carcinoma, dosed 105 weeks, study length 105 weeks) 11.7 mg/kg/day; (mouse, strain B6C3F1, males, inhaled, site: liver, lesion: hepatocellular carcinoma, dosed 105 weeks, study length 105 weeks) 14.8 mg/kg/day. The TD50 runs as follows: (mouse, strain B6C3F1, males, inhaled, site: lung, lesion: alveolar/bronchiolar adenoma + alveolar/bronchiolar carcinoma, dosed 105 weeks, study length 105 weeks) 3.21 mg/kg/day; (mouse, strain B6C3F1, males, inhaled, site: lung, lesion: alveolar/bronchiolar carcinoma, dosed 105 weeks, study length 105 weeks) 4.15 mg/kg/day; (rat, strain Fischer 344, females, inhaled, site: any site (literature study), lesion: several types, types named in the paper, dosed 105 weeks, study length 105 weeks) 14 mg/kg/day; (rat, strain Fischer 344, females, inhaled, site: clitoral gland, lesion: adenoma + carcinoma, dosed 105 weeks, study length 105 weeks) 5.04 mg/kg/day; (rat, strain Fischer 344, females, inhaled, site: mammary gland, lesion: adenoma + fibroadenoma, dosed 105 weeks, study length 105 weeks) 0.77 mg/kg/day (inactive); (rat, strain Fischer 344, males, inhaled, site: liver, lesion: hepatocellular adenoma + hepatoblastoma + hepatocellular carcinoma, dosed 105 weeks, study length 105 weeks) 128 mg/kg/day. The TD50 amounted to 21.8 mg/kg/day (rat, strain Fischer 344, males, inhaled, site: lung, lesion: alveolar/bronchiolar adenoma + alveolar/bronchiolar carcinoma, dosed 105 weeks, study length 105 weeks) and 31.6 mg/kg/day (rat, strain Fischer 344, males, inhaled, site: lung, lesion: alveolar/bronchiolar adenoma, dosed 105 weeks, study length 105 weeks).

`C#C[C@]1(O)CC[C@H]2[C@@H]3CCC4=C(CCC(=O)C4)[C@H]3CC[C@@]21C`: the TD50 (mouse, strain (C3H x RIII)F1 (MTV+), females, in feed, site: mammary tissue, wider than the gland, lesion: one or several types, types not named, dosed 104 weeks, study length 104 weeks) was 2.13 mg/kg/day and the TD50 (mouse, strain CFLP, females, in feed, site: liver, lesion: hepatocellular tumor, dosed 78 weeks, study length 78 weeks) was 49.1 mg/kg/day (inactive). Further, the carcinogen call is, setting by setting: (mouse, strain CFLP, males, in feed, site: liver, lesion: hepatocellular tumor, dosed 78 weeks, study length 78 weeks) “negative (inactive)”; (mouse, strain Swiss Webster, females, by gavage, site: liver, lesion: hepatocellular tumor, dosed 65 weeks, study length 80 weeks) “negative (inactive)”.

Turning to `COc1ccc2nc(S(=O)Cc3ncc(C)c(OC)c3C)[nH]c2c1` (centres undefined), the TD50 reads like this: (rat, strain Sprague-Dawley, females, by gavage, site: gastric mucosa, lesion: carcinoid tumor, malignant, dosed 104 weeks, study length 104 weeks) 63 mg/kg/day; (rat, strain Sprague-Dawley, males, by gavage, site: gastric mucosa, lesion: carcinoid tumor, malignant, dosed 104 weeks, study length 104 weeks) 1120 mg/kg/day.

In the case of `P`, the TD50 was 53.1 mg/kg/day (inactive) (rat, strain Fischer 344, females, inhaled, site: liver, lesion: hepatocellular adenoma, dosed 104 weeks, study length 104 weeks) and 5.69 mg/kg/day (inactive) (rat, strain Fischer 344, males, inhaled, site: liver, lesion: hepatocellular adenoma, dosed 104 weeks, study length 104 weeks). The carcinogen call is “negative (inactive)” (rat, strain Fischer 344, females, inhaled, site: liver, lesion: one or several types, types not named, dosed 52 weeks, study length 52 weeks); “negative (inactive)” (rat, strain Fischer 344, males, inhaled, site: liver, lesion: hepatocellular carcinoma, dosed 104 weeks, study length 104 weeks); “negative (inactive)” (rat, strain Fischer 344, males, inhaled, site: liver, lesion: one or several types, types not named, dosed 52 weeks, study length 52 weeks); “negative (inactive)” (rat, strain Sprague-Dawley, females, in feed, site: any site (literature study), lesion: one or several types, types not named, dosed 52 weeks, study length 52 weeks); “negative (inactive)” (rat, strain Sprague-Dawley, females, in feed, site: any site (literature study), lesion: several types, types named in the paper, dosed 104 weeks, study length 104 weeks); “negative (inactive)” (rat, strain Sprague-Dawley, males, in feed, site: any site (literature study), lesion: one or several types, types not named, dosed 52 weeks, study length 52 weeks). Besides, the carcinogen call (rat, strain Sprague-Dawley, males, in feed, site: any site (literature study), lesion: several types, types named in the paper, dosed 104 weeks, study length 104 weeks) is “negative (inactive)”.
